Laboratory results taken from patent US10106535B2, “Histone deacetylase inhibitors and compositions and methods of use thereof” (CHDI Foundation, Inc., priority 2013, dated 2018).

target: human catalytic domain HDAC4 protein (amino acids 648-1032) (Homo sapiens (Human), UniProt P56524); assay: Inhibition of HDAC4 catalytic domain enzymatic activity, fluorogenic substrate Boc-Lys(Tfa)-AMC; details: read-out: Biochemical HDAC-4 IC50
From the text: The potency of Class IIa Histone Deacetylase (HDAC) inhibitors is quantified by measuring the Histone Deacetylase 4 (HDAC4) catalytic domain enzymatic activity using the fluorogenic substrate, Boc-Lys(Tfa)-AMC. The substrate is deacetylated to Boc-Lys-AMC by HDAC4. Cleavage by trypsin results in the release of the fluorophore AMC from the deacetylated substrate. The fluorescence of the sample is directly related to the histone deacetylase activity in the sample.
Serial dilutions of the HDAC inhibitors and control reference compound (1-(5-(3-((4-(1,3,4-oxadiazol-2-yl)phenoxy)methyl)-1,2,4-oxadiazol-5-yl)thiophen-2-yl)-2,2,2-trifluoroethanone) are made by first resuspending the lyophilized compound to a final concentration of 10 mM in 100% dimethyl sulfoxide (DMSO). Stocks of 60 μl aliquots of the 10 mM compound in DMSO are prepared and stored at −20° C. From one stock aliquot of each compound to be tested and the reference compound, a 16-point serial dilution is prepared according to Table 7 using a 125 μl 16-channel Matrix multi-channel pipette (Matrix Technologies Ltd). […]
5 μl of each solution of 1:20 diluted compound from above is transferred to a clear bottomed, black, 384-well assay plate using the Bravo or the Janus (384-well MDT head from Perkin Elmer). […] Finally, the fluorescence is measured (Excitation: 355 nm, Emission: 460 nm) using PerkinElmer EnVision in top read mode.

human catalytic domain HDAC4 protein (amino acids 648-1032), sequence (P56524 648-1032): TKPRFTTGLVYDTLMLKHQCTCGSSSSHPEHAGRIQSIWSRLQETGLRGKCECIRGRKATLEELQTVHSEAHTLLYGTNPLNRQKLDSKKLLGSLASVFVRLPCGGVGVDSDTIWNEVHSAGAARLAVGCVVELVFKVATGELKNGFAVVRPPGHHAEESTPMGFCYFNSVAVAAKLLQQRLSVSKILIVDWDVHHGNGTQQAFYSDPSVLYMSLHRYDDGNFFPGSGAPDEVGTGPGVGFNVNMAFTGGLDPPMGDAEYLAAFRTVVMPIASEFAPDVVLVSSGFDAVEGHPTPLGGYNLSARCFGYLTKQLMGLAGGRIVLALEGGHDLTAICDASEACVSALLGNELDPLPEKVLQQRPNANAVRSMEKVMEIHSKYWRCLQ

| Compound | IC50 [nM] |
| --- | --- |
| Cc1ncc(C2=C[C@](C(=O)NO)(c3cccc(F)c3C)CC2)cn1 [Example 10, (S)-1-(3-fluoro-2-methylphenyl)-N-hydroxy-3-(2-methylpyrimidin-5-yl)cyclopent-2-enecarboxamide] | 40 |

system: cellular histone deacetylase enzymatic activity in Jurkat E6-1 cells; assay: Inhibition of cellular HDAC activity in Jurkat E6-1 cells, fluorogenic substrate Boc-Lys(Tfa)-AMC; format: cell-based; details: Homo sapiens, read-out: Cell IC50
From the text: Example 50: Analysis of Inhibition of Cellular HDAC Activity with Class IIa Histone Deacetylase (HDAC) Inhibitors
The potency of Class IIa Histone Deacetylase (HDAC) inhibitors is quantified by measuring the cellular histone deacetylase enzymatic activity using the fluorogenic substrate, Boc-Lys(Tfa)-AMC. After penetration in Jurkat E6-1 cells, the substrate is deacetylated to Boc-Lys-AMC. After cell lysis and cleavage by trypsin, the fluorophore AMC is released from the deacetylated substrate only. The fluorescence of the sample is directly related to the histone deacetylase activity in the sample.
Jurkat E6.1 cells are cultured according to standard cell culture protocols in Jurkat E6.1 Growth Media (RPMI without phenol red, 10% FBS, 10 mM HEPES, and 1 mM Sodium Pyruvate). Jurkat E6.1 cells are counted using a Coulter Counter and resuspended in Jurkat E6.1 growth media at a concentration of 75,000 cells/35 μl. 35 μl or 75,000 cells is seeded into Greiner microtitre assay plates. The plates are then incubated at 37° C. and 5% CO2 while other assay components are being prepared.
Serial dilutions of the HDAC inhibitors and control reference compound (1-(5-(3-((4-(1,3,4-oxadiazol-2-yl)phenoxy)methyl)-1,2,4-oxadiazol-5-yl)thiophen-2-yl)-2,2,2-trifluoroethanone) are made by first resuspending the lyophilized compound to a final concentration of 10 mM in 100% DMSO. Stocks of 70 μl aliquots of the 10 mM compound in DMSO are prepared and stored at −20° C. From one stock aliquot of each compound to be tested and the reference compound, a 16-point serial dilution is prepared according to Table 1 using a 125 μl 16-channel Matrix multi-channel pipette.
2 μl (200×) of each diluted solution and each control (full activity: 100% DMSO alone or full inhibition 1 mM) is stamped into V-bottom polypropylene 384-well compound plates using either the Bravo, Janus, or 12.5 μl 16-channel Matrix multi-channel pipette. Each well with the 200× compound solution is diluted 1:20 by the addition of 38 μl Jurkat assay buffer+DMSO (9.5% DMSO, RPMI without phenol red, 0.09% FBS, 9 mM Hepes, and 0.9 mM Sodium Pyruvate equilibrated to room temperature)
5× (500 μM) substrate is prepared just prior to the addition to the assay. The 5× substrate is prepared by diluting a 100 mM Boc-Lys(Tfa)-AMC in DMSO solution 1:200 by adding it drop-wise to Jurkat assay medium (RPMI without phenol red, 0.1% FBS, 10 mM Hepes, and 1 mM Sodium Pyruvate equilibrated to 37° C.) while vortexing at slow speed to prevent precipitation.
10 ml of 3× lysis buffer is prepared with 8.8 ml of 3× stock lysis buffer (50 mM Tris-HCl, pH 8.0, 137 mM NaCl, 2.7 mM KCl, 1 mM MgCl2, 1% Nonidet P40 Substitute equilibrated to room temperature) and 1.2 ml of 3 mg/ml Trypsin equilibrated to room temperature.
5 μl of each solution of 1:20 diluted compound from above is transferred to the Greiner microtitre assay plates with 75,000 cells/well using the Bravo. Cells are then incubated for 2 hours at 37° C. and 5% CO2. The assay is then started by adding 10 μl of 5× (500 μM) substrate to the assay plate using either the Bravo or 16-channel Matrix multi-channel pipette. The cells are then incubated for 3 hours at 37° C. and 5% CO2. Next, 25 μl of 3× lysis buffer is added to each well using either the 125 μl 16 channel pipette or the Bravo. The assay plate is then incubated overnight (15-16 hours) at 37° C. and 5% CO2. The following day, the plates are shaken on an orbital shaker for 1 minute at 900 rpm. Finally the top read fluorescence (Excitation: 355 nm, Emission: 460 nm) is measured using PerkinElmer EnVision.

| Compound | IC50 [nM] |
| --- | --- |
| Cc1ncc(C2=C[C@](C(=O)NO)(c3cccc(F)c3C)CC2)cn1 [Example 10, (S)-1-(3-fluoro-2-methylphenyl)-N-hydroxy-3-(2-methylpyrimidin-5-yl)cyclopent-2-enecarboxamide] | 380 |
| Cc1c(F)cccc1[C@@]1(C(=O)NO)C=C(C2CC2)CC1 [Example 32, (S)-3-cyclopropyl-1-(3-fluoro-2-methylphenyl)-N-hydroxycyclopent-2-enecarboxamide] | 730 |
| O=C(NO)[C@]1(c2ccccc2)C=C(c2ccccc2)CC1 [Example 33, (S)-N-hydroxy-1,3-diphenylcyclopent-2-enecarboxamide] | 2500 |
| O=C(NO)[C@@]1(c2ccccc2)C=C(c2ccccc2)CC1 [Example 34, (R)-N-hydroxy-1,3-diphenylcyclopent-2-enecarboxamide] | > 50000 |
| O=C(NO)[C@]1(c2ccccc2)C=C(c2cncc(F)c2)CC1 [Example 35, (S)-3-(5-fluoropyridin-3-yl)-N-hydroxy-1-phenylcyclopent-2-enecarboxamide] | 3100 |
| Cc1ncc(Cl)cc1C1=C[C@](C(=O)NO)(c2cccc(F)c2C)CC1 [Example 36, (S)-3-(5-chloro-2-methylpyridin-3-yl)-1-(3-fluoro-2-methylphenyl)-N-hydroxycyclopent-2-enecarboxamide] | 120 |
| Cc1ncccc1C1=C[C@](C(=O)NO)(c2cccc(F)c2C)CC1 [Example 37, (S)-1-(3-fluoro-2-methylphenyl)-N-hydroxy-3-(2-methylpyridin-3-yl)cyclopent-2-enecarboxamide] | 90 |
| Cc1c(F)cccc1[C@@]1(C(=O)NO)C=C(c2ccc3cnn(C)c3c2)CC1 [Example 38, (S)-1-(3-fluoro-2-methylphenyl)-N-hydroxy-3-(1-methyl-1H-indazol-6-yl)cyclopent-2-enecarboxamide] | 10 |
| Cc1c(F)cccc1[C@@]1(C(=O)NO)C=C(c2ccc3cnn(C(F)F)c3c2)CC1 [Example 39, (S)-3-(1-(difluoromethyl)-1H-indazol-6-yl)-1-(3-fluoro-2-methylphenyl)-N-hydroxycyclopent-2-enecarboxamide] | 30 |
| Cc1c(F)cccc1[C@@]1(C(=O)NO)C=C(c2ccc3scnc3c2)CC1 [Example 40, (S)-3-(benzo[d]thiazol-5-yl)-1-(3-fluoro-2-methylphenyl)-N-hydroxycyclopent-2-enecarboxamide] | 50 |
| Cc1c(F)cccc1[C@@]1(C(=O)NO)C=C(c2cc3ccccc3s2)CC1 [Example 41, (S)-3-(benzo[b]thiophen-2-yl)-1-(3-fluoro-2-methylphenyl)-N-hydroxycyclopent-2-enecarboxamide] | 40 |
| Cc1c([C@@]2(C(=O)NO)C=C(c3ccc4cnn(C)c4c3)CC2)ccc(F)c1F [Example 42, (S)-1-(3,4-difluoro-2-methylphenyl)-N-hydroxy-3-(1-methyl-1H-indazol-6-yl)cyclopent-2-enecarboxamide] | 20 |
| O=C(NO)C1(c2ccccc2)CC=C(c2cncc(F)c2)CC1 (stereo not shown) [Example 43, 4-(5-fluoropyridin-3-yl)-N-hydroxy-1,2,3,6-tetrahydro-[1,1′-biphenyl]-1-carboxamide] | 39000 |
| Cc1c(F)cccc1C1(C(=O)NO)CC=C(c2cncc(F)c2)CC1 (stereo not shown) [Example 44, 3′-fluoro-4-(5-fluoropyridin-3-yl)-N-hydroxy-2′-methyl-1,2,3,6-tetrahydro-[1,1′-biphenyl]-1-carboxamide] | 670 |
| Cc1c(F)cccc1C1(C(=O)NO)CC=C(c2ccc3nccnc3c2)CC1 (stereo not shown) [Example 45, 3′-fluoro-N-hydroxy-2′-methyl-4-(quinoxalin-6-yl)-1,2,3,6-tetrahydro-[1,1′-biphenyl]-1-carboxamide] | 520 |
